Values of other authors, collected in patent publication US9993551B2, “Combination therapies of EGFR inhibitors” (NOVARTIS AG, priority 2014, dated 2018).

Columns and labels:
[1] = tested on: EGFR mutant (L858R, ex19del and T790M) cancer models; settings: in vitro and in vivo
[2] = tested on: EGFR activating and acquired resistance mutants (L858R, ex19del and T790M); settings: targeted covalent irreversible EGFR inhibitor
[3] = target: WT EGFR (Homo sapiens, UniProt P00533)
Chain of WT EGFR (P00533 25-1210): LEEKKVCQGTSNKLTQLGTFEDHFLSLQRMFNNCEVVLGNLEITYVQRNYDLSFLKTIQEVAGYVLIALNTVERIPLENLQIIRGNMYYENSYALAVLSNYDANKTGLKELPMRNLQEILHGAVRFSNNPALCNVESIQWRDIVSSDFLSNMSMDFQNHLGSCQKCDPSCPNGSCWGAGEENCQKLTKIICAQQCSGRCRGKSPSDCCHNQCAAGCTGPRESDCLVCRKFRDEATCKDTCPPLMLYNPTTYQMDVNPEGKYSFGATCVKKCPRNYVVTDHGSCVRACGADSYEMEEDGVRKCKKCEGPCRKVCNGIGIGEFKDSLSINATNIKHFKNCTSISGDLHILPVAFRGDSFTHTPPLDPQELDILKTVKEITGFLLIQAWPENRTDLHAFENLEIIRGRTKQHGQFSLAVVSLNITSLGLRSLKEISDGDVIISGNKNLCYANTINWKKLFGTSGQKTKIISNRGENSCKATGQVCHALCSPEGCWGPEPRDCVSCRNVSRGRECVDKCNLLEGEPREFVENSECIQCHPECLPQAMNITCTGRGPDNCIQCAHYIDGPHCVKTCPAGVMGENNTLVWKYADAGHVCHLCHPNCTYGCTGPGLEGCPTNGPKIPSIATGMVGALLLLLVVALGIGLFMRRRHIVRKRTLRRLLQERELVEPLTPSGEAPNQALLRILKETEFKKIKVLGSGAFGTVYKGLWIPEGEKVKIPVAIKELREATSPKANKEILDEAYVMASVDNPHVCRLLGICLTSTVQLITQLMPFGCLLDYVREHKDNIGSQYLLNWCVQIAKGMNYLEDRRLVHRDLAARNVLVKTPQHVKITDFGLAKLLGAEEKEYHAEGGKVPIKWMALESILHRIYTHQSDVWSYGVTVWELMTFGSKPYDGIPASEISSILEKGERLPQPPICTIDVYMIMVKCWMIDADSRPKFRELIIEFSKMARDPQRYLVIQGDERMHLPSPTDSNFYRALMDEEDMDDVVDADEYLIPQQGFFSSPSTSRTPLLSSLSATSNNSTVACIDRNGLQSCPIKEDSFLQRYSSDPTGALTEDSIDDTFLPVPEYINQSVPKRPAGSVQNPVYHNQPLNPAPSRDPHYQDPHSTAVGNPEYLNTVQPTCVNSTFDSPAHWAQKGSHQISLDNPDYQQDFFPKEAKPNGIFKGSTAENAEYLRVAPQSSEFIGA

effect on WT EGFR [3]: sparing WT EGFR
SMILES: Cc1cc(C(=O)Nc2nc3cccc(Cl)c3n2[C@@H]2CCCCN(C(=O)/C=C/CN(C)C)C2)ccn1 [EGF816, (R,E)-N-(7-chloro-1-(1-(4-(dimethylamino)but-2-enoyl)azepan-3-yl)-1H-benzo[d]imidazol-2-yl)-2-methylisonicotinamide]
efficacy in EGFR mutant cancer models [1]: significant efficacy
inhibition of mutant EGFR [2]: selectively inhibits
